The target in this test is T1, PARP10 (Homo sapiens, UniProt Q53GL7).
T1 construct: made in house
T1 sequence (Q53GL7 1-1025): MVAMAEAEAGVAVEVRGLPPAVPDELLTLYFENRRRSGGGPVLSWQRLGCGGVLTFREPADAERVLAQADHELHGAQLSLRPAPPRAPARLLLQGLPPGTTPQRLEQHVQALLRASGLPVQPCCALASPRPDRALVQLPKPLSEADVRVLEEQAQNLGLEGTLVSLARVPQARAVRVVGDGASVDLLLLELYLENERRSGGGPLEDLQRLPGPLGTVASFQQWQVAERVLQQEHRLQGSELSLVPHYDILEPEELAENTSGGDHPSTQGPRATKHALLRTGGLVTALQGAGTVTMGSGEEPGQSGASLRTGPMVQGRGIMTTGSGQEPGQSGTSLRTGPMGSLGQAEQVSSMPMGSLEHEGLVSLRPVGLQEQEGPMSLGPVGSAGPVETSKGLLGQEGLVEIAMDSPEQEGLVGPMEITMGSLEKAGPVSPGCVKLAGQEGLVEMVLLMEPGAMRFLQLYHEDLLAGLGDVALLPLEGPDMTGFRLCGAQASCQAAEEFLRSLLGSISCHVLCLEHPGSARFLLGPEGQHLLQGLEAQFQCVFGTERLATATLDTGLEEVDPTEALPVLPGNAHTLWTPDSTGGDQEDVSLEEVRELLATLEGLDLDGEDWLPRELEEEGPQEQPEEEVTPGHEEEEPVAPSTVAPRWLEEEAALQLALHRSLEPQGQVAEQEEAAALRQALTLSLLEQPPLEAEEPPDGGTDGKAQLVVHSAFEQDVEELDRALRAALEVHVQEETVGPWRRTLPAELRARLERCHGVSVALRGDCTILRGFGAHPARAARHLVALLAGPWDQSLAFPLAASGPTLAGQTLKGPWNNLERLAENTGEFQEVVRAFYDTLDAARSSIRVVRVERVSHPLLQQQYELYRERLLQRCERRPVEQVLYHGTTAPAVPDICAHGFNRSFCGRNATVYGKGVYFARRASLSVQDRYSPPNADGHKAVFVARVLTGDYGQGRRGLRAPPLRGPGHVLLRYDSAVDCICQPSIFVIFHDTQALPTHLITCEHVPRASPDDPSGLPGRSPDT
Description: Activity assay measuring NAD+ consumption, PARP10 (Tables 1-3). As to conditions: PARP10 IC50, Tables 1-3 assay. In kind it is biochemical.

In general, IC50 refers to the concentration at which inhibition is half-maximal. Read a low IC50 as greater potency.

In the case of `Nc1nnc2sc3cc(O)ccc3n12` [Compound 109, 3-Amino[1,2,4]triazolo[3,4-b][1,3]benzothiazol-7-ol], the half-inhibitory concentration (IC50) was 0.22 µM.
